# pKi: −log10 of the molar value.
# Biological target: T. cruzi lipoamide dehydrogenase (TcLipDH) (Trypanosoma cruzi, UniProt P90597)
# Assay: Recombinant enzyme kinetics
# Type: biochemical
# T. cruzi lipoamide dehydrogenase (TcLipDH), sequence (P90597 whole entry): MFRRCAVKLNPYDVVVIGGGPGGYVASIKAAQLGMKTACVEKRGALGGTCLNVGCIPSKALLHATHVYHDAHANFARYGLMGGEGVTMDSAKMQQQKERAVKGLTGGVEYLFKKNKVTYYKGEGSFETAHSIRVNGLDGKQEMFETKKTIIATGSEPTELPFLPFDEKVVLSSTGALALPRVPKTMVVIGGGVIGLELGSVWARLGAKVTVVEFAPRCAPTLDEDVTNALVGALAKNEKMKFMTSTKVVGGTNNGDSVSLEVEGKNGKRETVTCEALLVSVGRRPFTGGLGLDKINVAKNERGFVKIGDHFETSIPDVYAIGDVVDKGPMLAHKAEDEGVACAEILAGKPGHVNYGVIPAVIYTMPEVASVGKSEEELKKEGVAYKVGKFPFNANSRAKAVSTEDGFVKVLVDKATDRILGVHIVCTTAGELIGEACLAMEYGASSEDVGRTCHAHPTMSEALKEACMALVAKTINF
smiles,measurement,value
"O=C1C(c2ccccc2)=C(c2ccccc2)C(=O)c2ccccc21 [DPNQ, 2,3-diphenyl-1,4-naphthoquinone]",pKi,4.54

# From article PMC2929754 (The Journal of parasitology, 2009)
